Test results: US20260355318A1, “MOLECULAR MACHINES FOR TREATMENT OF CANCER, FUNGAL INFECTIONS, OR BACTERIAL INFECTIONS” (priority 2022, published 2026)
Converted amounts (≈) assume the structure as drawn.

Tests used:
C. albicans = experiment: MIC, visible-light-activated MMs and conventional antifungals, C. albicans; assay type: cell-based, Candida albicans (ATCC 18804); conditions: Candida albicans, read-out: MIC of antifungal agent
Outline: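 C. albicans suspensions (~10^4 CFU/mL in saline, CLSI) incubated 30 min in the dark with MMs, then irradiated with stirring at 405 nm, 292 mW cm^−2 for 5 min (87.6 J cm^−2). Cells then grown in MOPS-buffered RPMI 1640 (pH 7.0) at 30 °C for 48 h; MIC is lowest concentration with no visible growth; conventional antifungals tested likewise.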

T. rubrum = experiment: MIC, MMs and antifungals, T. rubrum; assay type: cell-based, Trichophyton rubrum (ATCC 10218); conditions: Trichophyton rubrum, read-out: MIC of antifungal agent
Method: Cell suspensions for susceptibility testing (MMs and conventional antifungals) were prepared per the Clinical & Laboratory Standards Institute (CLSI) guidelines (CLSI, 2017; CLSI, 2008). Before testing, yeasts (C. albicans and S. cerevisiae) were sub-cultured in Sabouraud Dextrose Agar-Emmons Modification (SDAE) plates and grown for 24 h at 30 °C. Five independent colonies from 24-h-old plates were collected and diluted to ~10^4 colony forming units (CFU) per mL in sterile saline (CLSI, 2017). Molds (A. fumigatus and the dermatophytes T. rubrum and M. gypseum) were sub-cultured on SDAE medium and incubated for 7 days at 28 °C. Conidia were recovered by covering the plates with sterile distilled water and scraping the colonies. The suspensions were filtered (8-μm pore size) and diluted in saline to ~10^4 CFU mL^−1 (Santos and Hamdan, 2005).
After a 30-min incubation in the dark, cell suspensions were transferred to small, sterilized glass beakers, which were then placed in a water bath. Each sample was irradiated with 405-nm light at 292 mW cm^−2 for 5 min, corresponding to a light dose of 87.6 J cm^−2, determined using an S415C thermal power sensor (Thorlabs, Newton, MA, USA). During irradiation, the cell suspensions were agitated with a small metal stirrer. […]

S. aureus [1] = experiment: MIC, S. aureus; assay type: cell-based, Staphylococcus aureus; conditions: Staphylococcus aureus, read-out: Antibiotic MIC
Method: (§1) The appropriate volume of an MM stock at 8 mM necessary to achieve a concentration ranging from 0.3125 to 40 μM was pipetted into a 2 mL microcentrifuge tube to which 1 mL of cell suspension prepared as previously described was added. Corresponding negative controls (DMSO only) were prepared in the same way. The mixture was gently mixed by pipetting and incubated in the dark at 30 or 37 ° C, depending on the strain, for 30 min with agitation (220 rpm). Afterward, MM- or DMSO-treated cells were dispensed in one well of a 24-well plate positioned in the center of the light beam (405 nm LED Light, Prizmatix, UHP—F-5-405) placed at the appropriate distance necessary to achieve the desired light intensity of 304 mW cm-2, 146 mW cm2 or 87 mW cm2, as measured with a handheld digital power meter console coupled to an S415C thermal power sensor head (Thorlabs, Newton, MA, USA). The temperature during irradiation was monitored using a thermocouple probe (Model SC-TT-K-30-36-PP; Omega Engineering, Inc., Stanford, CT, USA). Samples were agitated during irradiation. Dark controls were prepared as previously described except that no irradiation was provided.
(§2) For MIC determination, samples treated with a range of concentrations of the different MM, as described above and were irradiated one at a time for 5 min at 146 mW cm^−2 (43.8 J cm^−2), after which irradiated aliquots were collected and inoculated into 1 mL MHB in a 2 mL microcentrifuge tube. Samples were incubated overnight at 30 or 37 ° C, depending on the strain, without agitation. Corresponding non-irradiated samples and negative controls (without bacteria) were also included. The following day, cultures were inspected for growth and the MIC was identified. The experimental procedure used to determine the MIC of visible light-activated MMs is schematically depicted in FIG. 26.

S. aureus [2] = experiment: G. mellonella burn wound infection model, S. aureus; assay type: in vivo, Galleria mellonella; conditions: S. aureus-infected G. mellonella, 1×MIC
Method: (§3) Animal studies were conducted in the burn wound model Galleria mellonella recently described (Maslova et al., 2020). […] Larvae were sorted into Petri dishes lined with Whatman filter paper (Fisher Scientific, Pittsburgh, PA) and stored at 4 ° C until use. The larval bodies were sterilized with 70% ethanol. The burn was generated using a soldering iron (Weller WE1010 ESD-Safe Digital 70-Watt Soldering Station, 120V, Weller Company, Easton, PA, USA) to achieve a consistent burn area of ≈2 mm^2 in the middle section of the back of larvae. This location was chosen so the wound could be easily visualized without having to physically manipulate the larvae. Immediately post-burn, the wound was inoculated with 10 μL of 1:10 dilution of an overnight culture of A. baumannii or S. aureus. […] In order to minimize any potential temperature effects, a constant flow of 0.2 μm pore-size-filtered air was provided to the surface of the worm. Dark 1% DMSO controls were also included. The mortality of larvae post-treatment was monitored for up to 7 days. Mortality was recorded by complete melanization of the larval body and complete loss of motility. A brief overview of the protocol is schematically depicted in FIG. 44A. Work in Galleria mellonella was reviewed and approved by the Office of Sponsored Projects and Research Compliance (SPARC) of Rice University.

[3] = test system: biofilms of P. aeruginosa and S. aureus; experiment: Biofilm total bacterial cell number (acridine orange); assay type: cell-based, Pseudomonas aeruginosa, Staphylococcus aureus; conditions: 2×MIC, vs untreated controls
Method: (§4) This combination of methods is effective at evaluating the antibiofilm potential of chemicals (Stiefel et al., 2016). P. aeruginosa and S. aureus were grown overnight in tryptic soy broth (TSB) medium. The overnight cultures were diluted in 1:100 in fresh media and 100 μL aliquots were distributed in a 96-well plate. After 24 h of static growth at 37 ° C, planktonic cells were removed by inverting the plate onto a stack of paper towels, and the biofilm was washed three times with PBS. After washing, MM 1, MM 5, or MM 6 were added at 2×MIC to the biofilm and incubated statically in the dark for 60 min. The biofilm was then irradiated for 15, 30, or 45 min at 146 mW cm2. For the determination of the total bacterial number, acridine orange solution (2% in H2O) diluted 1:100 in Walpole's buffer (27.2 g L-1 sodium acetate trihydrate, adjusted to pH 4 with glacial acetic acid) was added to the wells.

[4] = test system: biofilms of P. aeruginosa and S. aureus; experiment: Biofilm metabolically active cells (ATP); assay type: cell-based, Pseudomonas aeruginosa, Staphylococcus aureus; conditions: 2×MIC, antibiotics 45 min, MMs 15 min + light, vs untreated
Method: as §4
For quantification of viable cells in biofilms, following the addition of 100 μL […] of TSB to each well, bacteria were detached from the biofilm by thorough mixing, after which […] of BacTiter-Glo™ reagent, prepared according to the manufacturer's instructions, was added to each well.

A. baumannii [5] = experiment: MIC, A. baumannii; assay type: cell-based, Acinetobacter baumannii; conditions: A. baumannii, broth microdilution
Method: as §1, §2

A. baumannii [6] = experiment: G. mellonella burn wound infection model, A. baumannii; assay type: in vivo, Galleria mellonella; conditions: A. baumannii-infected G. mellonella, 1×MIC
Method: as §3

Which MIC (C. albicans) does the source give for `Cc1cc(C2CCCCC2)n(O)c(=O)c1` [Ciclopirox (CPX), Ciclopirox] here?
The MIC was 1 µg/mL.

What about the MIC (T. rubrum) of the same compound?
Its MIC is 0.5 µg/mL.

How did the MIC (S. aureus [1]) turn out when `NC[C@H]1O[C@H](O[C@H]2[C@H](O)[C@@H](O[C@H]3O[C@H](CO)[C@@H](O)[C@H](N)[C@H]3O)[C@H](N)C[C@@H]2N)[C@H](N)C[C@@H]1O` [Tobramycin] was run?
Its MIC is 4 µg/mL (≈ 8.56 µM).

And the “mortality after 7 days” value (S. aureus [2])?
Its value is 33%.

What about the “reduction in total bacterial cell number in biofilm” value [3] of the same compound?
The value was “up to 43%”.

What about the “reduction in metabolically active cells in biofilm” value [4] of the same compound?
The value was 27%.

With Polymyxin B [reference compound] as the compound, how does the “Antibiotic MIC” value (A. baumannii [5]) read?
The value was 0.125 μg per mL.

What about the “mortality after 7 days” value (A. baumannii [6]) of the same compound?
The value was 69%.
